Reference: patent US8148391B2 (Cephalon, Inc., priority 2006, dated 2012)

What was measured:
[1] = biological target: T1, baculovirus-expressed ALK (Homo sapiens, UniProt Q9UM73); assay: ALK Kinase Assay (ELISA-type, time-resolved fluorescence); type: biochemical; conditions: ALK kinase inhibition, 1 μM ATP (Km level); read-out: ALK Activity
T1 construct: host or cells: baculovirus expression system
Outline: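 Wells were coated with phospholipase C-γ at 10 μg/mL in Tris-buffered saline. Adding 30 ng/ml enzyme started the reaction, which ran at 37° C for 15 minutes before Eu-N1 PT66 antibody detection. Percent inhibition versus log10 concentration gave IC50 by variable-slope fit.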

[2] = biological target: T2, c-Met (cytoplasmic domain) (Homo sapiens, UniProt P08581); assay: c-Met Kinase Assay (same methods as for ALK, with modifications); type: biochemical; conditions: c-Met kinase inhibition, 1 μM ATP (Km level); read-out: cMet Activity
T2 construct: 10 ng/mL c-Met (cytoplasmic domain, Invitrogen Corporation #PV3143); purchased Invitrogen Corporation PV3143
Outline: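 IC50 values were fitted by variable-slope sigmoidal regression of percent inhibition against log compound concentration. Phosphorylation was read with Eu-N1 PT66 antibody after a 15 min, 37 °C reaction. The reaction was initiated with 10 ng/mL c-Met cytoplasmic domain on wells coated with 10 μg/mL PLC-γ in TBS.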

T2 sequence (P08581 956-1390 limits assumed): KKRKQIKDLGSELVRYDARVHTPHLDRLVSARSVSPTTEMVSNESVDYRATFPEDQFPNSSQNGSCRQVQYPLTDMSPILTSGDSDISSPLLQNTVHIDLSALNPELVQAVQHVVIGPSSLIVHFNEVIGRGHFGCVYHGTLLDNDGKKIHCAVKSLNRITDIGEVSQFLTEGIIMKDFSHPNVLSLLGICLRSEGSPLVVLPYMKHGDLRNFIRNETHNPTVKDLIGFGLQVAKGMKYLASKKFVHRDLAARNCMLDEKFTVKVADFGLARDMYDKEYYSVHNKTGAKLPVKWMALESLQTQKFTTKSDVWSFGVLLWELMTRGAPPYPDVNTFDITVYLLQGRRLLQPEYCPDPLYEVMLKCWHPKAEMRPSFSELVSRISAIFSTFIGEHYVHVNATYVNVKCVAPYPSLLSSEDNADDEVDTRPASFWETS
T1 sequence (Q9UM73 19-1620): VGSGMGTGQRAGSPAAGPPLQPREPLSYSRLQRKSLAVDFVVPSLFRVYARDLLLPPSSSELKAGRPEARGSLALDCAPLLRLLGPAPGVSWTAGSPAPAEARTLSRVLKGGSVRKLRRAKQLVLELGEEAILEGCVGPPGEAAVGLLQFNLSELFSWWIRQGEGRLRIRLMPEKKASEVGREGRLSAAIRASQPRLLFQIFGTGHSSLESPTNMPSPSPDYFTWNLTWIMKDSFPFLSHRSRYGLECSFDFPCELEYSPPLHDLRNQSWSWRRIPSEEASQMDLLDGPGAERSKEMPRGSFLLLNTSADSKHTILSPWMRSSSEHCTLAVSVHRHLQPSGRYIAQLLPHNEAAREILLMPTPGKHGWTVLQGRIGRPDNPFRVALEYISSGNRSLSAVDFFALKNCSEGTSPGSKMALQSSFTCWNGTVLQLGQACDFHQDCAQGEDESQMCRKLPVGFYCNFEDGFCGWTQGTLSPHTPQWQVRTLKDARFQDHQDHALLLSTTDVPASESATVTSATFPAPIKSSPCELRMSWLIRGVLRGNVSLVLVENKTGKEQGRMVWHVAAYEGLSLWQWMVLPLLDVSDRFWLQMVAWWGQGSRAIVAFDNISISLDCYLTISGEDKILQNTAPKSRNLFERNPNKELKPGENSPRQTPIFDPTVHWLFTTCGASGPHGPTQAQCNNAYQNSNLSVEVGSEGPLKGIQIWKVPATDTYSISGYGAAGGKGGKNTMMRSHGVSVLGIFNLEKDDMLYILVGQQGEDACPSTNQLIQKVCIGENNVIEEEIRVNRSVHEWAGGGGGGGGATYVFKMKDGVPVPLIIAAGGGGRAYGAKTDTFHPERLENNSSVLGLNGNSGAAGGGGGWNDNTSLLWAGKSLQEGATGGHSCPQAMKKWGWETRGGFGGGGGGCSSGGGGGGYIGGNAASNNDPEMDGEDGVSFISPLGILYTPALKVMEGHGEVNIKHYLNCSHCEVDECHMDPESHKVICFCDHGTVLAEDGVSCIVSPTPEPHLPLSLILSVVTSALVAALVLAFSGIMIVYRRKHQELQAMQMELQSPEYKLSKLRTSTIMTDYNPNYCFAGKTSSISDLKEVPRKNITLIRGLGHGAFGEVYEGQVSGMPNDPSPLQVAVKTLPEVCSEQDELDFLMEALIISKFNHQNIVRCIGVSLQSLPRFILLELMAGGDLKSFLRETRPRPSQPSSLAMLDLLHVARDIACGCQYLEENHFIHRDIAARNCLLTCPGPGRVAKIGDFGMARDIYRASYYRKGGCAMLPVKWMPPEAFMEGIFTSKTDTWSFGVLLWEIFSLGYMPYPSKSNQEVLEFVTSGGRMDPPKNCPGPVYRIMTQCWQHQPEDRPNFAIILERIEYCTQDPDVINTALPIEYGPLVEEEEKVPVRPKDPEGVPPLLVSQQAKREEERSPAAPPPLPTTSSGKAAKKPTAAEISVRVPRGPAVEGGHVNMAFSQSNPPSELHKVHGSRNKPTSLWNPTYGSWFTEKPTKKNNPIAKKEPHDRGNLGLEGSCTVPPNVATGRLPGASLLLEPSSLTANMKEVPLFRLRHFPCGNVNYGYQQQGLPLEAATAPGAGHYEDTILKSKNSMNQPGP

SMILES: CCN1CC2OC(C1)c1cc(Nc3ncc(Cl)c(Nc4ccccc4C(=O)NC)n3)ccc12 (centres unmarked) [Example 61, 2-[5-Chloro-2-(10-ethyl-12-oxa-10-aza-tricyclo[6.3.1.0*2,7*]dodeca-2,4,6-trien-4-ylamino)-pyrimidin-4-ylamino]-N-methyl-benzamide]
- IC50 [1]: < 100 nM
- IC50 [2]: 100 to 1000 nM

SMILES: CNC(=O)c1ccccc1Nc1nc(Nc2ccc3c(c2)C2CN(C(C)C)CC3O2)ncc1Cl (centres unmarked) [Example 62, 2-[5-Chloro-2-(10-isopropyl-12-oxa-10-aza-tricyclo[6.3.1.0*2,7*]dodeca-2,4,6-trien-4-ylamino)-pyrimidin-4-ylamino]-N-methyl-benzamide]
- IC50 [1]: < 100 nM
- IC50 [2]: 100 to 1000 nM

SMILES: C#CCN1CC2OC(C1)c1cc(Nc3ncc(Cl)c(Nc4ccccc4C(=O)NC)n3)ccc12 (centres unmarked) [Example 63, 2-[5-Chloro-2-(10-prop-2-ynyl-12-oxa-10-aza-tricyclo[6.3.1.0*2,7*]dodeca-2,4,6-trien-4-ylamino)-pyrimidin-4-ylamino]-N-methyl-benzamide]
- IC50 [1]: 100 to 1000 nM
- IC50 [2]: < 100 nM

SMILES: CNC(=O)c1ccccc1Nc1nc(Nc2ccc3c(c2)C2CN(S(C)(=O)=O)CC3O2)ncc1Cl (centres unmarked) [Example 64, 2-[5-Chloro-2-(10-methanesulfonyl-12-oxa-10-aza-tricyclo[6.3.1.0*2,7*]dodeca-2(7),3,5-trien-4-ylamino)-pyrimidin-4-ylamino]-N-methyl-benzamide]
- IC50 [1]: 100 to 1000 nM
- IC50 [2]: < 100 nM

SMILES: CNC(=O)c1ccccc1Nc1nc(Nc2ccc3c(c2)C2CNCC3O2)ncc1Cl (centres unmarked) [Example 65, 2-[5-Chloro-2-(12-oxa-10-aza-tricyclo[6.3.1.0*2,7*]dodeca-2(7),3,5-trien-4-ylamino)-pyrimidin-4-ylamino]-N-methyl-benzamide]
- IC50 [1]: 100 to 1000 nM
- IC50 [2]: 100 to 1000 nM

SMILES: CCN1CC2OC(C1)c1cc(Nc3ncc(Cl)c(Nc4ccccc4S(=O)(=O)NC)n3)ccc12 (centres unmarked) [Example 66, 2-[5-Chloro-2-(10-ethyl-12-oxa-10-aza-tricyclo[6.3.1.0*2,7*]dodeca-2(7),3,5-trien-4-ylamino)-pyrimidin-4-ylamino]-N-methyl-benzenesulfonamide]
- IC50 [1]: < 100 nM
- IC50 [2]: 1000 to 10000 nM

SMILES: CCOC(=O)N1C2CCC1c1cc(Nc3ncc(Cl)c(Nc4ccccc4C(=O)NC)n3)ccc1C2 (centres unmarked) [Example 67, 4-[5-Chloro-4-(2-methylcarbamoyl-phenylamino)-pyrimidin-2-ylamino]-12-aza-tricyclo[7.2.1.0*2,7*]dodeca-2(7),3,5-triene-12-carboxylic acid ethyl ester]
- IC50 [1]: < 100 nM
- IC50 [2]: < 100 nM

SMILES: CNC(=O)c1ccccc1Nc1nc(Nc2ccc3c(c2)C2CCC(C3)N2CCOC)ncc1Cl (centres unmarked) [Example 68, 2-{5-Chloro-2-[12-(2-methoxy-ethyl)-12-aza-tricyclo[7.2.1.0*2,7*]dodeca-2(7),3,5-trien-4-ylamino]-pyrimidin-4-ylamino}-N-methyl-benzamide]
- IC50 [1]: < 100 nM
- IC50 [2]: < 100 nM

SMILES: C#CCN1C2CCC1c1cc(Nc3ncc(Cl)c(Nc4ccccc4C(=O)NC)n3)ccc1C2 (centres unmarked) [Example 69, 2-[5-Chloro-2-(12-prop-2-ynyl-12-aza-tricyclo[7.2.1.0*2,7*]dodeca-2(7),3,5-trien-4-ylamino)-pyrimidin-4-ylamino]-N-methyl-benzamide]
- IC50 [1]: < 100 nM
- IC50 [2]: < 100 nM

SMILES: CNC(=O)c1ccccc1Nc1nc(Nc2ccc3c(c2)C2CCC(C3)N2C(=O)C2CC2)ncc1Cl (centres unmarked) [Example 70, 2-[5-Chloro-2-(12-cyclopropanecarbonyl-12-aza-tricyclo[7.2.1.0*2,7*]dodeca-2(7),3,5-trien-4-ylamino)-pyrimidin-4-ylamino]-N-methyl-benzamide]
- IC50 [1]: < 100 nM
- IC50 [2]: < 100 nM

SMILES: CCN1C2CCC1c1cc(Nc3ncc(Cl)c(N[C@@H]4CCCC[C@H]4NS(C)(=O)=O)n3)ccc1C2 (stereo partly drawn) [Example 71, N-{(1R,2R)-2-[5-Chloro-2-(12-ethyl-12-aza-tricyclo[7.2.1.0*2,7*]dodeca-2(7),3,5-trien-4-ylamino)-pyrimidin-4-ylamino]-cyclohexyl}-methanesulfonamide]
- IC50 [1]: < 100 nM
- IC50 [2]: 100 to 1000 nM

SMILES: CCN1C2CCC1c1cc(Nc3ncc(Cl)c(Nc4ccccc4NS(C)(=O)=O)n3)ccc1C2 (centres unmarked) [Example 72, N-{2-[5-Chloro-2-(12-ethyl-12-aza-tricyclo[7.2.1.0*2,7*]dodeca-2(7),3,5-trien-4-ylamino)-pyrimidin-4-ylamino]-phenyl}-methanesulfonamide]
- IC50 [1]: < 100 nM
- IC50 [2]: 100 to 1000 nM

SMILES: CCN1C2CCC1c1c(ccc(Nc3ncc(Cl)c(Nc4ccccc4C(=O)NC)n3)c1Cl)C2 (centres unmarked) [Example 73, 2-[5-Chloro-2-(3-chloro-12-ethyl-12-aza-tricyclo[7.2.1.0*2,7*]dodeca-2(7),3,5-trien-4-ylamino)-pyrimidin-4-ylamino]-N-methyl-benzamide]
- IC50 [1]: < 100 nM
- IC50 [2]: 100 to 1000 nM

SMILES: CCOC(=O)N1C2CCC1c1cc(Nc3ncc(Cl)c(Nc4ccccc4C(=O)NC)n3)c(Cl)cc1C2 (centres unmarked) [Example 74, 5-Chloro-4-[5-chloro-4-(2-methylcarbamoyl-phenylamino)-pyrimidin-2-ylamino]-12-aza-tricyclo[7.2.1.0*2,7*]dodeca-2(7),3,5-triene-12-carboxylic acid ethyl ester]
- IC50 [1]: 100 to 1000 nM
- IC50 [2]: > 10000 nM

SMILES: CCOC(=O)N1C2CCC1c1c(ccc(Nc3ncc(Cl)c(Nc4ccccc4C(=O)NC)n3)c1Cl)C2 (centres unmarked) [Example 75, 3-Chloro-4-[5-chloro-4-(2-methylcarbamoyl-phenylamino)-pyrimidin-2-ylamino]-12-aza-tricyclo[7.2.1.0*2,7*]dodeca-2(7),3,5-triene-12-carboxylic acid ethyl ester]
- IC50 [1]: < 100 nM
- IC50 [2]: 1000 to 10000 nM

SMILES: COCCN1C2CCC1c1cc(Nc3ncc(Cl)c(Nc4ccccc4NS(C)(=O)=O)n3)ccc1C2 (centres unmarked) [Example 76, N-(2-{5-Chloro-2-[12-(2-methoxy-ethyl)-12-aza-tricyclo[7.2.1.0*2,7*]dodeca-2(7),3,5-trien-4-ylamino]-pyrimidin-4-ylamino}-phenyl)-methanesulfonamide]
- IC50 [1]: < 100 nM
- IC50 [2]: 100 to 1000 nM

SMILES: COCCN1C2CCC1c1cc(Nc3ncc(Cl)c(N[C@@H]4CCCC[C@H]4NS(C)(=O)=O)n3)ccc1C2 (stereo partly drawn) [Example 77, N-((1R,2R)-2-{5-Chloro-2-[12-(2-methoxy-ethyl)-12-aza-tricyclo[7.2.1.0*2,7*]dodeca-2(7),3,5-trien-4-ylamino]-pyrimidin-4-ylamino}-cyclohexyl)-methanesulfonamide]
- IC50 [1]: < 100 nM
- IC50 [2]: 100 to 1000 nM

SMILES: CCOC(=O)N1C2CCC1c1cc(C(=O)OC)cc(Nc3ncc(Cl)c(Nc4ccccc4C(=O)NC)n3)c1C2 (centres unmarked) [Example 78, 6-[5-Chloro-4-(2-methylcarbamoyl-phenylamino)-pyrimidin-2-ylamino]-12-aza-tricyclo[7.2.1.0*2,7*]dodeca-2(7),3,5-triene-4,12-dicarboxylic acid 12-ethyl ester 4-methyl ester]
- IC50 [1]: < 100 nM
- IC50 [2]: 100 to 1000 nM

SMILES: CNC(=O)c1ccccc1Nc1nc(Nc2ccc3c(c2)C2CCC(C3)N2)ncc1Cl (centres unmarked) [Example 79, 2-[2-(12-Aza-tricyclo[7.2.1.0*2,7*]dodeca-2(7),3,5-trien-4-ylamino)-5-chloro-pyrimidin-4-ylamino]-N-methyl-benzamide]
- IC50 [1]: < 100 nM
- IC50 [2]: < 100 nM

SMILES: CNC(=O)c1ccccc1Nc1nc(Nc2ccc3c(c2)C2CCC(C3)N2C(C)C)ncc1Cl (centres unmarked) [Example 80, 2-[5-Chloro-2-(12-isopropyl-12-aza-tricyclo[7.2.1.0*2,7*]dodeca-2(7),3,5-trien-4-ylamino)-pyrimidin-4-ylamino]-N-methyl-benzamide]
- IC50 [1]: < 100 nM
- IC50 [2]: < 100 nM

SMILES: CNC(=O)c1ccccc1Nc1nc(Nc2ccc3c(c2Cl)C2CCC(C3)N2)ncc1Cl (centres unmarked) [Example 81, 2-[5-Chloro-2-(3-chloro-12-aza-tricyclo[7.2.1.0*2,7*]dodeca-2(7),3,5-trien-4-ylamino)-pyrimidin-4-ylamino]-N-methyl-benzamide]
- IC50 [1]: < 100 nM
- IC50 [2]: 100 to 1000 nM

SMILES: CS(=O)(=O)N[C@@H]1CCCC[C@H]1Nc1nc(Nc2ccc3c(c2)C2CCC(C3)N2)ncc1Cl (stereo partly drawn) [Example 82, N-{(1R,2R)-2-[2-(12-Aza-tricyclo[7.2.1.0*2,7*]dodeca-2(7),3,5-trien-4-ylamino)-5-chloro-pyrimidin-4-ylamino]-cyclohexyl}-methanesulfonamide]
- IC50 [1]: 1000 to 10000 nM
- IC50 [2]: 100 to 1000 nM

SMILES: CC(C)N1C2CCC1c1cc(Nc3ncc(Cl)c(N[C@@H]4CCCC[C@H]4NS(C)(=O)=O)n3)ccc1C2 (stereo partly drawn) [Example 83, N-{(1R,2R)-2-[5-Chloro-2-(12-isopropyl-12-aza-tricyclo[7.2.1.0*2,7*]dodeca-2(7),3,5-trien-4-ylamino)-pyrimidin-4-ylamino]-cyclohexyl}-methanesulfonamide]
- IC50 [1]: < 100 nM
- IC50 [2]: 100 to 1000 nM

SMILES: CNC(=O)c1ccccc1Nc1nc(Nc2ccc3c(c2Cl)C2CCC(C3)N2C(C)C)ncc1Cl (centres unmarked) [Example 86, 2-[5-Chloro-2-(3-chloro-12-isopropyl-12-aza-tricyclo[7.2.1.0*2,7*]dodeca-2(7),3,5-trien-4-ylamino)-pyrimidin-4-ylamino]-N-methyl-benzamide]
- IC50 [1]: < 100 nM
- IC50 [2]: 100 to 1000 nM

SMILES: CNC(=O)c1ccccc1Nc1nc(Nc2ccc3c(c2Cl)C2CCC(C3)N2CCOC)ncc1Cl (centres unmarked) [Example 87, 2-{5-Chloro-2-[3-chloro-12-(2-methoxy-ethyl)-12-aza-tricyclo[7.2.1.0*2,7*]dodeca-2(7),3,5-trien-4-ylamino]-pyrimidin-4-ylamino}-N-methyl-benzamide]
- IC50 [1]: < 100 nM
- IC50 [2]: 100 to 1000 nM
